Source: the supplement of paper PMC4862054

What was measured:
Assay in all cases: normalised viability (% of control), CellTiter-Blue; higher = more viable cells (about 100 = DMSO control)
[1] = tested on: BT-549; details: 100 nM; incubation time: 72 h
In short: (§1)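 Each entry is normalised viability at a single listed concentration within a series. It comes from breast cancer cell lines incubated 72 h with compound in 384-well plates, then measured with CellTiter-Blue fluorescence at 560/590 nm. Every plate was normalised between vehicle (100) and a positive kill control (0).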

[2] = tested on: CAL-148; details: 10 nM; incubation time: 72 h
In short: as §1

[3] = tested on: CAL-85-1; details: 10 nM; incubation time: 72 h
In short: as §1

[4] = tested on: HCC1937; details: 100 nM; incubation time: 72 h
In short: as §1

[5] = tested on: HDQ-P1; details: 10 nM; incubation time: 72 h
In short: as §1

[6] = tested on: MDA-MB-231; details: 100 nM; incubation time: 72 h
In short: as §1

[7] = tested on: MDA-MB-468; details: 100 nM; incubation time: 72 h
In short: as §1

[8] = tested on: SK-BR-3; details: 100 nM; incubation time: 72 h
In short: as §1

[9] = tested on: BT-474; details: incubation time: 72 h
In short: as §1

[10] = tested on: BT-549; details: incubation time: 72 h
In short: as §1

[11] = tested on: CAL-120; details: incubation time: 72 h
In short: as §1

[12] = tested on: CAL-148; details: incubation time: 72 h
In short: as §1

[13] = tested on: CAL-51; details: incubation time: 72 h
In short: as §1

[14] = tested on: DU-4475; details: incubation time: 72 h
In short: as §1

[15] = tested on: HCC1599; details: incubation time: 72 h
In short: as §1

[16] = tested on: HCC1937; details: incubation time: 72 h
In short: as §1

[17] = tested on: HDQ-P1; details: incubation time: 72 h
In short: as §1

[18] = tested on: Hs578T; details: incubation time: 72 h
In short: as §1

[19] = tested on: MDA-MB-436; details: incubation time: 72 h
In short: as §1

[20] = tested on: MFM-223; details: incubation time: 72 h
In short: as §1

[21] = tested on: SK-BR-3; details: incubation time: 72 h
In short: as §1

[22] = tested on: CAL-148; details: 300 nM; incubation time: 72 h
Procedure: (§2)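 DSRT, CellTiter-Blue viability, 72 h incubation. Signal is normalised to DMSO and benzethonium chloride controls. Value is the normalised response at dose 6.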

[23] = tested on: CAL-51; details: 300 nM; incubation time: 72 h
Procedure: as §2

[24] = tested on: CAL-85-1; details: 300 nM; incubation time: 72 h
Procedure: as §2

[25] = tested on: DU-4475; details: 300 nM; incubation time: 72 h
Procedure: as §2

[26] = tested on: HDQ-P1; details: 300 nM; incubation time: 72 h
Procedure: as §2

[27] = tested on: MDA-MB-453; details: 300 nM; incubation time: 72 h
Procedure: as §2

C1CN1c1nc(N2CC2)nc(N2CC2)n1 [Triethylenemelamine]
Details | normalised viability [%]
[1] | 95.7
[2] | 103
[3] | 101
[4] | 88.5
[5] | 102
[6] | 115
[7] | 101
[8] | 95.5
[22] | 118
[23] | 105
[24] | 99
[25] | 97.2
[26] | 105
[27] | 108

normalised viability [%]
Details | 3 nM | 10 nM | 30 nM | 100 nM | 1000 nM | 10000 nM
[9] | – | 111 | – | – | 126 | 130
[10] | – | 105 | – | – | 90.9 | 66.7
[11] | – | 112 | – | – | 106 | 98.7
[12] | 101 | – | 105 | 101 | – | –
[13] | 108 | – | 106 | 97.4 | – | –
[14] | 102 | – | 102 | 102 | – | –
[15] | – | 90.9 | – | – | 92.9 | 83.3
[16] | – | 86.2 | – | – | 72 | 75.3
[17] | 110 | – | 94.3 | 118 | – | –
[18] | – | 145 | – | – | 117 | 110
[19] | – | 105 | – | – | 96.5 | 102
[20] | – | 99.4 | – | – | 98.3 | 64.8
[21] | – | 105 | – | – | 109 | 105

Oc1ncc(N(CCCl)CCCl)c(O)n1 [Uracil mustard]
Details | normalised viability [%]
[1] | 111
[2] | 95.8
[3] | 103
[4] | 105
[5] | 107
[6] | 100
[7] | 108
[8] | 88.2
[22] | 89.7
[23] | 96.4
[24] | 93.1
[25] | 80.8
[26] | 94.8
[27] | 104

normalised viability [%]
Details | 3 nM | 10 nM | 30 nM | 100 nM | 1000 nM | 10000 nM
[9] | – | 122 | – | – | 120 | 116
[10] | – | 93.4 | – | – | 103 | 90.6
[11] | – | 88.3 | – | – | 87.5 | 82.5
[12] | 85.3 | – | 97.1 | 101 | – | –
[13] | 96.7 | – | 96.7 | 95.7 | – | –
[14] | 92 | – | 89.5 | 101 | – | –
[15] | – | 82.1 | – | – | 78.4 | 92.7
[16] | – | 143 | – | – | 82.4 | 66.7
[17] | 124 | – | 111 | 107 | – | –
[18] | – | 106 | – | – | 100 | 80.3
[19] | – | 103 | – | – | 76.6 | 97.8
[20] | – | 99.2 | – | – | 95.9 | 99.8
[21] | – | 109 | – | – | 95.1 | 79.8

CCCCC(=O)OCC(=O)[C@]1(O)Cc2c(O)c3c(c(O)c2[C@@H](O[C@H]2C[C@H](NC(=O)C(F)(F)F)[C@H](O)[C@H](C)O2)C1)C(=O)c1c(OC)cccc1C3=O [Valrubicin]
Details | normalised viability [%]
[1] | 85.2
[2] | 91.6
[3] | 84.2
[4] | 73.7
[5] | 120
[6] | 77
[7] | 92.1
[8] | 57.8
[22] | 35.5
[23] | 34.5
[24] | 75.1
[25] | 23.4
[26] | 72
[27] | 73.9

normalised viability [%]
Details | 3 nM | 10 nM | 30 nM | 100 nM | 1000 nM | 10000 nM
[9] | – | 114 | – | – | 74.9 | 55.1
[10] | – | 82.4 | – | – | 65.1 | 47.5
[11] | – | 96.1 | – | – | 31.8 | 15.6
[12] | 90.9 | – | 72.9 | 60.1 | – | –
[13] | 93.1 | – | 80 | 55.3 | – | –
[14] | 90.1 | – | 55.4 | 49.8 | – | –
[15] | – | 79.7 | – | – | 67.4 | 40.2
[16] | – | 96.5 | – | – | 30.7 | 19.7
[17] | 96.2 | – | 97.4 | 84.7 | – | –
[18] | – | 98.8 | – | – | 55.5 | 22
[19] | – | 111 | – | – | 84.9 | 42.8
[20] | – | 92.1 | – | – | 72.6 | 24.2
[21] | – | 91.3 | – | – | 25.9 | 9.82

CCCS(=O)(=O)Nc1ccc(F)c(C(=O)c2c[nH]c3ncc(-c4ccc(Cl)cc4)cc23)c1F [Vemurafenib]
Details | normalised viability [%]
[1] | 98.2
[2] | 98.1
[3] | 98.6
[4] | 96.4
[5] | 87.6
[6] | 94.6
[7] | 104
[8] | 96.9
[22] | 90.3
[23] | 96.5
[24] | 87.4
[25] | 55.1
[26] | 74.4
[27] | 88.7

normalised viability [%]
Details | 3 nM | 10 nM | 30 nM | 100 nM | 1000 nM | 10000 nM
[9] | – | 106 | – | – | 120 | 107
[10] | – | 96.4 | – | – | 105 | 57.3
[11] | – | 92.6 | – | – | 91.8 | 71.7
[12] | 95.2 | – | 97.3 | 98.3 | – | –
[13] | 102 | – | 95.4 | 92.9 | – | –
[14] | 94.5 | – | 85.1 | 68.2 | – | –
[15] | – | 77.6 | – | – | 87.6 | 90.9
[16] | – | 109 | – | – | 101 | 67.7
[17] | 92.9 | – | 105 | 106 | – | –
[18] | – | 112 | – | – | 129 | 45.9
[19] | – | 104 | – | – | 97.3 | 78.1
[20] | – | 87.9 | – | – | 95.4 | 85.6
[21] | – | 88.5 | – | – | 93.8 | 95
